According to patent US20070117743A1, “New antitumoral compounds” (priority 2003, published 2007):
Like-named read-outs stand apart in the source and are kept apart here. Where a SMILES comes first, the peptide text is derived from it. Bridges are numbered along the chain shown (N, C = ends). [ ]: non-standard residue; d: D form. The star is where a group is joined. d(aIle) = CC[C@H](C)[C@@H](N)C(=O)O; d(aThr) = C[C@@H](O)[C@@H](N)C(=O)O; Hexanoyl(5-Me) = CC(C)CCCC(=O)*; Orn = NCCC[C@H](N)C(=O)O; Dhb = C/C=C(\N)C(=O)O

Columns and labels:
Assay type in all cases: cell-based, human
A-549 = experiment: SRB colorimetric assay of cell growth and viability, A-549; conditions: 48 hours exposure
HT-29 = experiment: SRB colorimetric assay of cell growth and viability, HT-29; conditions: 48 hours exposure
MB-231 = experiment: SRB colorimetric assay of cell growth and viability, MB-231; conditions: MB-231 cells, 48 hours exposure
Source text: (§1) The finality of this assay is to interrupt the growth of a “in vitro” tumor cell culture by means a continued exhibition of the cells to the sample to be testing.
(§2) A colorimetric type of assay, using sulforhodamine B (SRB) reaction has been adapted for a quantitative measurement of cell growth and viability [following the technique described by Philip Skehan, et al. (1990), New colorimetric cytotoxicity assay for anticancer drug screening, J. Natl. Cancer Inst., 82:1107-1112].
(§3) This form of the assay employs 96 well cell culture microplates of 9 mm diameter (Faircloth, 1988; Mosmann, 1983). Most of the cell lines are obtained from American Type Culture Collection (ATCC) derived from different human cancer types.
(§4) Cells are maintained in RPMI 1640 10% FBS, supplemented with 0.1 g/l penicillin and 0.1 g/l streptomycin sulfate and then incubated at 37° C., 5% CO2 and 98% humidity. For the experiments, cells were harvested from subconfluent cultures using trypsin and resuspended in fresh medium before plating.
(§5) Cells are seeded in 96 well microtiter plates, at 5×10^3 cells per well in aliquots of 195 μL medium, and they are allowed to attach to the plate surface by growing in drug free medium for 18 hours. Afterward, samples are added in aliquots of 5 μL in a ranging from 10 to 10^−8 μg/mL, dissolved in DMSO:EtOH:PBS (0.5:0.5:99). After 48 hours exposure, the antitumor effect are measured by the SRB methodology: cells are fixed by adding 50 μL of cold 50% (wt/vol) trichloroacetic acid (TCA) and incubating for 60 minutes at 4° C. Plates are washed with deionized water and dried. One hundred μL of SRB solution (0.4% wt/vol in 1% acetic acid) is added to each microtiter well and incubated for 10 minutes at room temperature. Unbound SRB is removed by washing with 1% acetic acid. Plates are air dried and bound stain is solubilized with Tris buffer. Optical densities are read on a automated spectrophotometric plate reader at a single wavelength of 490 nm.
(§6) The values for mean+/− SD of data from triplicate wells are calculated. Some parameters for cellular responses can be calculated: GI=growth inhibition, TGI=total growth inhibition (cytostatic effect) and LC=cell killing (cytotoxic effect).

SK-MEL-28 = experiment: SRB colorimetric assay of cell growth and viability, SK-MEL-28; conditions: 48 hours exposure; for CC50: read-out: LC50 MEL-28
LoVo = experiment: SRB colorimetric assay of cell growth and viability, LoVo; conditions: 48 hours exposure; for CC50: read-out: LC50 LOVO
LoVo-Dox = experiment: SRB colorimetric assay of cell growth and viability, LoVo-Dox; conditions: 48 hours exposure; for CC50: read-out: LC50 LOVO-DOX
Procedure, shortened: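 Tumor cells are continuously exposed to sample for 48 hours, with vehicle DMSO:EtOH:PBS (0.5:0.5:99), after an 18-hour drug-free attachment period. Bound SRB, measured at 490 nm, reflects cell mass; GI, TGI and LC are derived from triplicate means.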

DU-145 = experiment: SRB colorimetric assay of cell growth and viability, DU-145; conditions: 48 hours exposure
LNCaP = experiment: SRB colorimetric assay of cell growth and viability, LNCaP; conditions: 48 hours exposure; for GI50: read-out: GI50 LN-caP; for CC50: read-out: LC50 LN-caP
IGROV-1 = experiment: SRB colorimetric assay of cell growth and viability, IGROV-1; conditions: 48 hours exposure
IGROV-ET = experiment: SRB colorimetric assay of cell growth and viability, IGROV-ET; conditions: 48 hours exposure; for CC50: read-out: LC50 IGROV-ET
SK-OV-3 = experiment: SRB colorimetric assay of cell growth and viability, SK-OV-3; conditions: 48 hours exposure; for GI50: read-out: GI50 SKOV-3; for CC50: read-out: LC50 SKOV-3
Source text: as §1, §2, §3, §4, §5, §6

K-562 = experiment: SRB colorimetric assay of cell growth and viability, K-562; conditions: 48 hours exposure; for CC50: read-out: LC50 K-562
PANC-1 = experiment: SRB colorimetric assay of cell growth and viability, PANC-1; conditions: 48 hours exposure; for CC50: read-out: LC50 PANC-1
[1] = read-out: GI50 (growth inhibition at 50%), A-549 cells, SRB
[2] = read-out: LC50 (lethal concentration at 50%), A-549 cells, SRB
[3] = read-out: GI50 (growth inhibition at 50%), HT-29 cells, SRB
[4] = read-out: LC50 (lethal concentration at 50%), HT-29 cells, SRB

## C/C=C1\NC(=O)[C@H](Cc2ccccc2)NC(=O)[C@@H](C(C)C)NC(=O)[C@@H]([C@@H](C)CC)NC(=O)[C@H](NC(=O)[C@H](NC(=O)[C@H](CCCN)NC(=O)[C@H]2CCCN2C(=O)[C@H](NC(=O)[C@@H](NC(=O)[C@@H](NC(=O)[C@H](NC(=O)CCCC(C)C)C(C)C)[C@@H](C)O)C(C)C)C(C)C)C(C)C)[C@@H](C)OC(=O)[C@H](C(C)C)NC1=O [Compound 105, [D-Val^7]-KF] ({Hexanoyl(5-Me)}-[dV]TV[dV][dP][Orn][dV][d(aThr)][d(aIle)][dV]F[Dhb]V; ester 8-C)
A-549; A-549 cells, SRB
  TGI (total growth inhibition): 2.60E−06 Molar
A-549; [1]
  GI50: 2.28 µM
A-549; [2]
  CC50: 3.04 µM
HT-29; HT-29 cells, SRB
  TGI (total growth inhibition): 8.87E−07 Molar
HT-29; [3]
  GI50: 0.824 µM
HT-29; [4]
  CC50: 0.887 µM
MB-231
  TGI (total growth inhibition): 6.33E−06 Molar

## C/C=C1\NC(=O)[C@H](Cc2ccccc2)NC(=O)[C@@H](C(C)C)NC(=O)[C@@H]([C@@H](C)CC)NC(=O)[C@H](NC(=O)[C@H](NC(=O)[C@H](CCCN)NC(=O)[C@H]2CCCN2C(=O)[C@H](NC(=O)[C@@H](NC(=O)[C@@H](NC(=O)[C@H](NC(=O)[C@]23CCC(C)(C)C[C@H]2C2=CC[C@@H]4[C@@]5(C)C[C@@H](O)[C@H](O)C(C)(C)[C@@H]5CC[C@@]4(C)[C@]2(C)CC3)C(C)C)[C@@H](C)O)C(C)C)C(C)C)[C@@H](C)CC)[C@@H](C)OC(=O)[C@H](C(C)C)NC1=O [Compound 101, [AM^14]-KF]
A-549; A-549 cells, SRB
  TGI (total growth inhibition): 5.49E−06 Molar
A-549; [1]
  GI50: 5.49 µM
A-549; [2]
  CC50: 5.49 µM
HT-29; HT-29 cells, SRB
  TGI (total growth inhibition): 4.60E−06 Molar
HT-29; [3]
  GI50: 4.45 µM
HT-29; [4]
  CC50: 4.86 µM
MB-231
  TGI (total growth inhibition): 5.49E−06 Molar

## C/C=C1\NC(=O)[C@H](Cc2ccccc2)NC(=O)[C@@H](C(C)C)NC(=O)[C@@H]([C@@H](C)CC)NC(=O)[C@H](NC(=O)[C@@H](CS)NC(=O)[C@H](CCCN)NC(=O)[C@H]2CCCN2C(=O)[C@H](NC(=O)[C@H](CS)NC(=O)[C@@H](NC(=O)[C@H](NC(=O)CCCC(C)C)C(C)C)[C@@H](C)O)C(C)C)[C@@H](C)OC(=O)[C@H](C(C)C)NC1=O [Compound 107, [D-Cys^7, L-Cys^11]-KF] ({Hexanoyl(5-Me)}-[dV]TC[dV][dP][Orn][dC][d(aThr)][d(aIle)][dV]F[Dhb]V; ester 8-C)
A-549; A-549 cells, SRB
  TGI (total growth inhibition): 6.80E−06 Molar
A-549; [1]
  GI50: 6.8 µM
A-549; [2]
  CC50: 6.8 µM
HT-29; HT-29 cells, SRB
  TGI (total growth inhibition): 6.80E−06 Molar
HT-29; [3]
  GI50: 6.8 µM
HT-29; [4]
  CC50: 6.8 µM
MB-231
  TGI (total growth inhibition): 6.80E−06 Molar

## C/C=C1\NC(=O)[C@H](Cc2ccccc2)NC(=O)[C@@H](C(C)C)NC(=O)[C@@H]([C@@H](C)CC)NC(=O)[C@H](NC(=O)[C@H](NC(=O)[C@H](CCCN)NC(=O)[C@H]2CCCN2C(=O)[C@H](NC(=O)[C@@H](NC(=O)[C@@H](NC(=O)[C@H](NC(=O)Cc2ccc(C(F)(F)F)cc2)C(C)C)[C@@H](C)O)C(C)C)C(C)C)[C@@H](C)CC)[C@@H](C)OC(=O)[C@H](C(C)C)NC1=O [Compound 25, [p-CF3PhAc^14]-KF]
A-549
  TGI A-549: 9.67E−07 Molar
A-549; read-out: GI50 A-549
  GI50: 0.297 µM
A-549; read-out: LC50 A-549
  CC50: 3.24 µM
SK-MEL-28
  GI50: 1.4 µM
  TGI MEL-28: 2.14E−05 Molar
  CC50: 4.06 µM
HT-29
  TGI HT-29: 1.41E−06 Molar
HT-29; read-out: GI50 HT-29
  GI50: 0.555 µM
HT-29; read-out: LC50 HT-29
  CC50: 3.32 µM
LoVo
  GI50: 0.203 µM
  TGI LOVO: 4.59E−07 Molar
  CC50: 1.61 µM
LoVo-Dox
  GI50: 0.176 µM
  TGI LOVO-DOX: 3.92E−07 Molar
  CC50: 1.43 µM
DU-145
  GI50: 0.251 µM
  LC50 (concentration causing 50% net cell kill): 2.38 µM
  TGI DU-145: 7.86E−07 Molar
LNCaP
  TGI LN-caP: 1.19E−06 Molar
  GI50: 0.32 µM
  CC50: 3.66 µM
IGROV-1
  GI50: 0.252 µM
  LC50 (concentration causing 50% net cell killing): 1.96 µM
  TGI IGROV: 4.54E−07 Molar
IGROV-ET
  GI50: 0.2 µM
  TGI IGROV-ET: 3.23E−07 Molar
  CC50: 0.521 µM
SK-OV-3
  TGI SKOV-3: 3.29E−07 Molar
  GI50: 0.126 µM
  CC50: 1.13 µM
K-562
  GI50: 1.42 µM
  TGI K-562: 3.06E−06 Molar
  CC50: 6.44 µM
PANC-1
  GI50: 1.58 µM
  TGI PANC-1: 3.07E−06 Molar
  CC50: 5.96 µM

## C/C=C1\NC(=O)[C@H](Cc2ccccc2)NC(=O)[C@@H](C(C)C)NC(=O)[C@@H]([C@@H](C)CC)NC(=O)[C@H](NC(=O)[C@H](NC(=O)[C@H](CCCN)NC(=O)[C@H]2CCCN2C(=O)[C@H](NC(=O)CCCC(C)C)C(C)C)[C@@H](C)CC)[C@@H](C)OC(=O)[C@H](C(C)C)NC1=O [Compound 31, [noVal^11, noThr^12, noD-Val^13]-KF] ({Hexanoyl(5-Me)}-[dV][dP][Orn][d(aIle)][d(aThr)][d(aIle)][dV]F[Dhb]V; ester 5-C)
A-549
  TGI A-549: 8.49E−06 Molar
A-549; read-out: GI50 A-549
  GI50: 5.91 µM
A-549; read-out: LC50 A-549
  CC50: 8.49 µM
SK-MEL-28
  GI50: 4.21 µM
  TGI MEL-28: 8.49E−06 Molar
  CC50: 8.49 µM
HT-29
  TGI HT-29: 8.49E−06 Molar
HT-29; read-out: GI50 HT-29
  GI50: 8.49 µM
HT-29; read-out: LC50 HT-29
  CC50: 8.49 µM
LoVo
  GI50: 8.49 µM
  TGI LOVO: 8.49E−06 Molar
  CC50: 8.49 µM
LoVo-Dox
  GI50: 2.38 µM
  TGI LOVO-DOX: 4.00E−06 Molar
  CC50: ≥ 6.75 µM
DU-145
  GI50: 3.3 µM
  LC50 (concentration causing 50% net cell kill): 8.49 µM
  TGI DU-145: 6.37E−06 Molar
LNCaP
  TGI LN-caP: 3.79E−06 Molar
  GI50: 1.94 µM
  CC50: 7.39 µM
IGROV-1
  GI50: 2.69 µM
  LC50 (concentration causing 50% net cell killing): 6.25 µM
  TGI IGROV: 4.10E−06 Molar
IGROV-ET
  GI50: 2.69 µM
  TGI IGROV-ET: 4.07E−06 Molar
  CC50: 6.18 µM
SK-OV-3
  TGI SKOV-3: 5.03E−06 Molar
  GI50: 2.21 µM
  CC50: 8.49 µM
K-562
  GI50: 2.21 µM
  TGI K-562: 4.26E−06 Molar
  CC50: 8.18 µM
PANC-1
  GI50: 2.12 µM
  TGI PANC-1: 3.63E−06 Molar
  CC50: 6.23 µM
